In patent US20260306491A1, “EGFR INHIBITOR FOR TREATING CANCERS COMPRISING ATYPICAL EGFR MUTATIONS” (ORIC Pharmaceuticals, Inc., priority 2023, published 2026):

Assay: Clinical study in NSCLC subjects: treatment-related adverse events (Example 10)
Format: in vivo, human
Details: oral hemifumarate
Protocol: A clinical study was conducted using Compound I in human subjects having non-small cell lung cancer (NSCLC) comprising EGFR exon 20 insertion mutations, HER2 exon 20 insertion mutations, or HER2 amplification or overexpression. A total of 50 human subjects having non-small cell lung cancer comprising one or more EGFR exon 20 insertion mutations, HER2 exon 20 insertion mutations, or HER2 amplification or overexpression were enrolled in the study as of Jul. 31, 2023 with data collected as of Sep. 26, 2023. The subjects were enrolled into one of ten dosing cohorts that were each orally administered Compound I in the form of a hemifumarate salt as shown in Table 13 (QD=once per day; BID=twice per day).
The TRAEs that occurred in equal to or greater than 10% of subjects in the study are set forth in Tables 15 to 18 (TDD=total daily dose; n=number; N/A=not applicable; the term rash includes the following terms: acne, dermatitis, dermatitis acneiform, eczema, hand dermatitis, and rash).

C=CC(=O)Nc1cc(Nc2cc(N3OCC[C@@H]3c3cc(F)cc(F)c3)ncn2)c(OC)cc1N1CCC(N2CCN(C3CC3)CC2)CC1 [Compound I, N-[2-[4-(4-cyclopropyl-1-piperazinyl)-1-piperidinyl]-5-[[6-[(3R)-3-(3,5-difluorophenyl)-2-isoxazolidinyl]-4-pyrimidinyl]amino]-4-methoxyphenyl]-2-propenamide]
Dose reductions and discontinuations: infrequent dose reductions and discontinuations | Decreased appetite, Grade 1 (45 mg-60 mg TDD (n = 23)): (22) % | Decreased appetite, Grade 1, number of subjects (45 mg-60 mg TDD (n = 23)): 5 n | Decreased appetite, Grade 2 (45 mg-60 mg TDD (n = 23)): (4) % | Decreased appetite, Grade 2, number of subjects (45 mg-60 mg TDD (n = 23)): 1 n | Diarrhea, Grade 1 (45 mg-60 mg TDD (n = 23)): (30) % | Diarrhea, Grade 1, number of subjects (45 mg-60 mg TDD (n = 23)): 7 n | Diarrhea, Grade 2 (45 mg-60 mg TDD (n = 23)): (9) % | Diarrhea, Grade 2, number of subjects (45 mg-60 mg TDD (n = 23)): 2 n | Diarrhea, Grade 3 (45 mg-60 mg TDD (n = 23)): 9% | Diarrhea, Grade 3, number of subjects (45 mg-60 mg TDD (n = 23)): 2 n | Dose discontinuations (45 mg-60 mg TDD (n = 23)): 4% | Dose discontinuations, number (45 mg-60 mg TDD (n = 23)): 1 n | Dose reductions (45 mg-60 mg TDD (n = 23)): 13% | Dose reductions, number (45 mg-60 mg TDD (n = 23)): 3 n | Nausea, Grade 1 (45 mg-60 mg TDD (n = 23)): (9) % | Nausea, Grade 1, number of subjects (45 mg-60 mg TDD (n = 23)): 2 n | Nausea, Grade 2 (45 mg-60 mg TDD (n = 23)): (9) % | Nausea, Grade 2, number of subjects (45 mg-60 mg TDD (n = 23)): 2 n | Paronychia, Grade 1 (45 mg-60 mg TDD (n = 23)): (17) % | Paronychia, Grade 1, number of subjects (45 mg-60 mg TDD (n = 23)): 4 n | Paronychia, Grade 2 (45 mg-60 mg TDD (n = 23)): (17) % | Paronychia, Grade 2, number of subjects (45 mg-60 mg TDD (n = 23)): 4 n | Pruritis, Grade 1 (45 mg-60 mg TDD (n = 23)): (17) % | Pruritis, Grade 1, number of subjects (45 mg-60 mg TDD (n = 23)): 4 n | Pruritis, Grade 2 (45 mg-60 mg TDD (n = 23)): (9) % | Pruritis, Grade 2, number of subjects (45 mg-60 mg TDD (n = 23)): 2 n | Pruritis, Grade 3 (45 mg-60 mg TDD (n = 23)): 4% | Pruritis, Grade 3, number of subjects (45 mg-60 mg TDD (n = 23)): 1 n | Rash, Grade 1 (45 mg-60 mg TDD (n = 23)): (26) % | Rash, Grade 1, number of subjects (45 mg-60 mg TDD (n = 23)): 6 n | Rash, Grade 2 (45 mg-60 mg TDD (n = 23)): (26) % | Rash, Grade 2, number of subjects (45 mg-60 mg TDD (n = 23)): 6 n | Stomatitis, Grade 1 (45 mg-60 mg TDD (n = 23)): (9) % | Stomatitis, Grade 1, number of subjects (45 mg-60 mg TDD (n = 23)): 2 n | Stomatitis, Grade 2 (45 mg-60 mg TDD (n = 23)): (9) % | Stomatitis, Grade 2, number of subjects (45 mg-60 mg TDD (n = 23)): 2 n | Stomatitis, Grade 3 (45 mg-60 mg TDD (n = 23)): 4% | Stomatitis, Grade 3, number of subjects (45 mg-60 mg TDD (n = 23)): 1 n | Vomiting, Grade 1 (45 mg-60 mg TDD (n = 23)): (9) % | Vomiting, Grade 1, number of subjects (45 mg-60 mg TDD (n = 23)): 2 n | Decreased appetite, Grade 2 (<45 mg TDD (n = 18)): (6) % | Decreased appetite, Grade 2, number of subjects (<45 mg TDD (n = 18)): 1 n | Diarrhea, Grade 1 (<45 mg TDD (n = 18)): (11) % | Diarrhea, Grade 1, number of subjects (<45 mg TDD (n = 18)): 2 n | Diarrhea, Grade 2 (<45 mg TDD (n = 18)): (11) % | Diarrhea, Grade 2, number of subjects (<45 mg TDD (n = 18)): 2 n | Dose discontinuations (<45 mg TDD (n = 18)): 9% | Dose discontinuations, number (<45 mg TDD (n = 18)): 1 n | Dose reductions (<45 mg TDD (n = 18)): 18% | Dose reductions, number (<45 mg TDD (n = 18)): 2 n | Nausea, Grade 1 (<45 mg TDD (n = 18)): (6) % | Nausea, Grade 1, number of subjects (<45 mg TDD (n = 18)): 1 n | Paronychia, Grade 1 (<45 mg TDD (n = 18)): (6) % | Paronychia, Grade 1, number of subjects (<45 mg TDD (n = 18)): 1 n | Paronychia, Grade 2 (<45 mg TDD (n = 18)): (11) % | Paronychia, Grade 2, number of subjects (<45 mg TDD (n = 18)): 2 n | Pruritis, Grade 1 (<45 mg TDD (n = 18)): (11) % | Pruritis, Grade 1, number of subjects (<45 mg TDD (n = 18)): 2 n | Rash, Grade 1 (<45 mg TDD (n = 18)): (33) % | Rash, Grade 1, number of subjects (<45 mg TDD (n = 18)): 6 n | Rash, Grade 2 (<45 mg TDD (n = 18)): (22) % | Rash, Grade 2, number of subjects (<45 mg TDD (n = 18)): 4 n | Stomatitis, Grade 1 (<45 mg TDD (n = 18)): (22) % | Stomatitis, Grade 1, number of subjects (<45 mg TDD (n = 18)): 4 n | Stomatitis, Grade 2 (<45 mg TDD (n = 18)): (11) % | Stomatitis, Grade 2, number of subjects (<45 mg TDD (n = 18)): 2 n | Vomiting, Grade 1 (<45 mg TDD (n = 18)): (11) % | Vomiting, Grade 1, number of subjects (<45 mg TDD (n = 18)): 2 n | Decreased appetite, All Grades (all doses): (14) % | Decreased appetite, All Grades, number of subjects (all doses): 7 n | Diarrhea, All Grades (all doses): (40) % | Diarrhea, All Grades, number of subjects (all doses): 20 n | Dose discontinuations (all doses): (4) % | Dose discontinuations, number (all doses): 2 n | Dose reductions (all doses): (16) % | Dose reductions, number (all doses): 8 n | Nausea, All Grades (all doses): (16) % | Nausea, All Grades, number of subjects (all doses): 8 n | Paronychia, All Grades (all doses): (28) % | Paronychia, All Grades, number of subjects (all doses): 14 n | Pruritis, All Grades (all doses): (22) % | Pruritis, All Grades, number of subjects (all doses): 11 n | Rash, All Grades (all doses): (54) % | Rash, All Grades, number of subjects (all doses): 27 n | Stomatitis, All Grades (all doses): (30) % | Stomatitis, All Grades, number of subjects (all doses): 15 n | Vomiting, All Grades (all doses): (14) % | Vomiting, All Grades, number of subjects (all doses): 7 n | Treatment-related adverse events (TRAEs), grade (each dose level): Grade 1 and 2 treatment-related adverse events (TRAEs) at each dose level | Diarrhea, Grade 1 (≥75 mg TDD (n = 9)): 22% | Diarrhea, Grade 1, number of subjects (≥75 mg TDD (n = 9)): 2 n | Diarrhea, Grade 2 (≥75 mg TDD (n = 9)): 22% | Diarrhea, Grade 2, number of subjects (≥75 mg TDD (n = 9)): 2 n | Diarrhea, Grade 3 (≥75 mg TDD (n = 9)): 11% | Diarrhea, Grade 3, number of subjects (≥75 mg TDD (n = 9)): 1 n | Dose reductions (≥75 mg TDD (n = 9)): 33% | Dose reductions, number (≥75 mg TDD (n = 9)): 3 n | Nausea, Grade 1 (≥75 mg TDD (n = 9)): 11% | Nausea, Grade 1, number of subjects (≥75 mg TDD (n = 9)): 1 n | Nausea, Grade 2 (≥75 mg TDD (n = 9)): 11% | Nausea, Grade 2, number of subjects (≥75 mg TDD (n = 9)): 1 n | Nausea, Grade 3 (≥75 mg TDD (n = 9)): 11% | Nausea, Grade 3, number of subjects (≥75 mg TDD (n = 9)): 1 n | Paronychia, Grade 1 (≥75 mg TDD (n = 9)): 22% | Paronychia, Grade 1, number of subjects (≥75 mg TDD (n = 9)): 2 n | Paronychia, Grade 2 (≥75 mg TDD (n = 9)): 11% | Paronychia, Grade 2, number of subjects (≥75 mg TDD (n = 9)): 1 n | Pruritis, Grade 1 (≥75 mg TDD (n = 9)): 11% | Pruritis, Grade 1, number of subjects (≥75 mg TDD (n = 9)): 1 n | Pruritis, Grade 2 (≥75 mg TDD (n = 9)): 11% | Pruritis, Grade 2, number of subjects (≥75 mg TDD (n = 9)): 1 n | Rash, Grade 1 (≥75 mg TDD (n = 9)): 44% | Rash, Grade 1, number of subjects (≥75 mg TDD (n = 9)): 4 n | Rash, Grade 2 (≥75 mg TDD (n = 9)): 11% | Rash, Grade 2, number of subjects (≥75 mg TDD (n = 9)): 1 n | Stomatitis, Grade 1 (≥75 mg TDD (n = 9)): 22% | Stomatitis, Grade 1, number of subjects (≥75 mg TDD (n = 9)): 2 n | Stomatitis, Grade 2 (≥75 mg TDD (n = 9)): 22% | Stomatitis, Grade 2, number of subjects (≥75 mg TDD (n = 9)): 2 n | Vomiting, Grade 1 (≥75 mg TDD (n = 9)): 11% | Vomiting, Grade 1, number of subjects (≥75 mg TDD (n = 9)): 1 n | Vomiting, Grade 2 (≥75 mg TDD (n = 9)): 11% | Vomiting, Grade 2, number of subjects (≥75 mg TDD (n = 9)): 1 n | Vomiting, Grade 3 (≥75 mg TDD (n = 9)): 11% | Vomiting, Grade 3, number of subjects (≥75 mg TDD (n = 9)): 1 n
